The values below come from ChEMBL document CHEMBL1201862, “PubChem BioAssay data set” (2004).

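Following 48 hours of exposure in 96-well plates, responses at five concentrations were used to interpolate endpoints linearly. GI50 = concentration required for 50% inhibition of growth.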 Active and inactive are the calls of the source. Cut-off read from the data, not from the text of the source: active = GI50 up to about 1.1 µM and inactive = higher.

Test systems include MDA-N; MCF7; CCRF-CEM; UACC-257; CAKI-1; U-251; SR; NCI-H23; HOP-92; SN12C; LOX IMVI; SNB-19; SK-MEL-5; Hs-578T; COLO 205; RXF 393; SF-268; SW-620; K562; OVCAR-4.
Assay in all cases: NCI anticancer screen, dose series, 48 h

As for `Oc1cc(-c2cccc(F)c2)nc2cc3c(cc12)OCO3`, the GI50 was 0.0111 µM (active) in the assay on MDA-N; 0.108 µM (active) in the assay on MCF7; 0.0507 µM (active) with CCRF-CEM; 0.0236 µM (active) with UACC-257; 0.0513 µM (active) in the assay on CAKI-1; 0.0757 µM (active) in the assay with U-251. Further, the GI50 was 0.0241 µM (active) in the assay on SR; 0.294 µM (active) with NCI-H23; 0.272 µM (active) in the assay with HOP-92; 0.129 µM (active) with SN12C; 0.0692 µM (active) with LOX IMVI; 0.124 µM (active) in the assay on SNB-19. Besides, the GI50 with SK-MEL-5 is 0.03 µM (active); in the assay on Hs-578T, 0.0226 µM (active); in the assay with COLO 205 it was 0.0743 µM (active); in the assay with RXF 393 it was 0.0546 µM (active); in the assay on SF-268, 0.115 µM (active); in the assay on SW-620, 0.0356 µM (active). In addition, the GI50 with K562 was 0.0653 µM (active); with OVCAR-4, 1.26 µM (inactive).

With `CCCN(CCCCC(NC(C)=O)C(=O)NCc1ccccc1)C(=O)N(CCCl)N=O` (stereo not given), the GI50 was > 100 µM (inactive) in the assay on MDA-N; 40 µM (inactive) with MCF7; 54.6 µM (inactive) in the assay on CCRF-CEM; > 100 µM (inactive) in the assay on UACC-257; > 79.8 µM (inactive) in the assay on CAKI-1; 15.8 µM (inactive) in the assay with U-251. Besides, the GI50 in the assay on SR is 19.3 µM (inactive); in the assay with NCI-H23 it was 49.9 µM (inactive); in the assay with HOP-92 it was 43.8 µM (inactive); in the assay with SN12C it was 58.3 µM (inactive); with LOX IMVI, 22.9 µM (inactive); in the assay with SNB-19 it was 31.9 µM (inactive). Also, the GI50 in the assay with SK-MEL-5 is > 77.8 µM (inactive); in the assay on Hs-578T it was 42.1 µM (inactive); in the assay with COLO 205, > 90.2 µM (inactive); in the assay with RXF 393, 66.1 µM (inactive); in the assay on SF-268, 9.46 µM (inactive); in the assay on SW-620 it was > 97.1 µM (inactive). The GI50 with K562 was 65.2 µM (inactive); in the assay on OVCAR-4, > 100 µM (inactive).

As to `C[N+](C)([O-])CCC=C1c2ccccc2CCc2ccccc21`, the GI50 with MDA-N is 19.5 µM (inactive); in the assay on MCF7, 19.9 µM (inactive); with CCRF-CEM, 18.6 µM (inactive); in the assay with UACC-257, 35.5 µM (inactive); with CAKI-1 it was 28.8 µM (inactive); in the assay on U-251 it was 18.2 µM (inactive). Moreover, the GI50 in the assay with SR was 16.7 µM (inactive); in the assay with NCI-H23 it was 34.1 µM (inactive); in the assay on HOP-92, 25.5 µM (inactive); with SN12C, 24.2 µM (inactive); with LOX IMVI it was 1.14 µM (inactive); with SNB-19, 35.6 µM (inactive). Further, the GI50 was 17.7 µM (inactive) in the assay on SK-MEL-5; 25.6 µM (inactive) with Hs-578T; 20 µM (inactive) in the assay with COLO 205; 20.5 µM (inactive) in the assay with RXF 393; 21.5 µM (inactive) with SF-268; 21.8 µM (inactive) in the assay on SW-620. Besides, the values for the GI50 with K562 and in the assay with OVCAR-4 were 19.2 µM (inactive) and 28.2 µM (inactive), respectively.

Consider `O=C(CC1(O)C(=O)Nc2c(Cl)cc(Cl)cc21)c1ccc(Br)cc1Br` (stereo not given), for which the GI50 in the assay on MDA-N is 7.57 µM (inactive); in the assay on MCF7, 13.2 µM (inactive); in the assay on CCRF-CEM, 0.474 µM (active); in the assay with UACC-257 it was 10.7 µM (inactive); in the assay with CAKI-1 it was 4.24 µM (inactive); in the assay with U-251, 13.1 µM (inactive). Further, the GI50 in the assay on SR is 1.56 µM (inactive); in the assay with NCI-H23 it was 8.26 µM (inactive); with HOP-92, 2.4 µM (inactive); in the assay on SN12C, 13.1 µM (inactive); in the assay with LOX IMVI, 5.19 µM (inactive); in the assay with SNB-19, 17.2 µM (inactive). The GI50 in the assay on SK-MEL-5 was 7.4 µM (inactive); in the assay on Hs-578T, 0.0646 µM (active); with COLO 205 it was 7.21 µM (inactive); with RXF 393 it was 11.7 µM (inactive); in the assay with SF-268, 8.17 µM (inactive); in the assay with SW-620 it was 3.3 µM (inactive). Further, the GI50 with K562 is 0.946 µM (active); in the assay on OVCAR-4, 12.2 µM (inactive).

On to `CC(=O)O[C@H]1C(=O)[C@@]2(C)[C@H]([C@H](OC(=O)c3ccccc3)[C@]3(O)C[C@H](OC(=O)[C@H](O)[C@@H](NC(=O)c4cccc(N=[N+]=[N-])c4)c4ccccc4)C(C)=C1C3(C)C)[C@]1(OC(C)=O)CO[C@@H]1C[C@@H]2O`, for which the GI50 in the assay on MDA-N was < 0.0025 µM (active); with MCF7, < 0.0025 µM (active); in the assay with CCRF-CEM, 0.00331 µM (active); in the assay with UACC-257, 0.00621 µM (active); in the assay on CAKI-1, 1.07 µM (active); in the assay on U-251 it was 0.00629 µM (active). The GI50 was < 0.0025 µM (active) in the assay with SR; 0.00641 µM (active) in the assay with NCI-H23; 0.0109 µM (active) in the assay with HOP-92; 0.0164 µM (active) in the assay on SN12C; 0.00789 µM (active) in the assay on LOX IMVI; 0.0129 µM (active) in the assay with SNB-19. Also, the GI50 in the assay on SK-MEL-5 was 0.00507 µM (active); in the assay with Hs-578T it was < 0.0025 µM (active); in the assay with COLO 205, 0.00301 µM (active); with RXF 393 it was 0.045 µM (active); with SF-268, 0.0289 µM (active); in the assay with SW-620, 0.00621 µM (active). The GI50 in the assay with K562 was < 0.0025 µM (active); with OVCAR-4, 6.05 µM (inactive).

Consider `CC(C)/C(Cl)=N\OC(NC(=O)P(=O)(c1ccccc1)c1ccccc1)(C(F)(F)F)C(F)(F)F`, for which the GI50 with MDA-N was 19.5 µM (inactive); with MCF7, 13.3 µM (inactive); with CCRF-CEM it was 5.01 µM (inactive); with UACC-257 it was 17.8 µM (inactive); with CAKI-1, 23.7 µM (inactive); in the assay on U-251 it was 2.88 µM (inactive). In addition, the GI50 was 14.7 µM (inactive) in the assay with SR; 2.99 µM (inactive) with NCI-H23; 2.46 µM (inactive) with HOP-92; 11.9 µM (inactive) in the assay with SN12C; 11.3 µM (inactive) with LOX IMVI; 17.9 µM (inactive) in the assay on SNB-19. For the same compound, the GI50 in the assay on SK-MEL-5 is 13.8 µM (inactive); in the assay on Hs-578T it was 23.9 µM (inactive); in the assay with COLO 205, 11.7 µM (inactive); in the assay with RXF 393, 14.6 µM (inactive); in the assay on SF-268, 12.1 µM (inactive); in the assay with SW-620, 21.7 µM (inactive). Further, the GI50 in the assay on K562 was 4.25 µM (inactive); in the assay on OVCAR-4, 5 µM (inactive).

Consider `COC1=CC(=O)c2c(cc(COP(=O)(N(C)CCBr)N(C)CCBr)n2C)C1=O`, for which the GI50 was 1.21 µM (inactive) in the assay on MDA-N; < 0.0182 µM (active) with MCF7; 0.0356 µM (active) in the assay with CCRF-CEM; 2.7 µM (inactive) in the assay on UACC-257; < 0.0182 µM (active) in the assay with CAKI-1; 0.0419 µM (active) in the assay on U-251. The GI50 is < 0.01 µM (active) with SR; < 0.0212 µM (active) with NCI-H23; 0.69 µM (active) with HOP-92; < 0.0272 µM (active) in the assay on SN12C; < 0.0238 µM (active) with LOX IMVI; 0.798 µM (active) with SNB-19. Moreover, the GI50 with SK-MEL-5 is 1.07 µM (active); in the assay on Hs-578T, 1.77 µM (inactive); with COLO 205 it was 0.865 µM (active); in the assay with RXF 393, 0.229 µM (active); in the assay with SF-268, 0.183 µM (active); in the assay with SW-620, 0.187 µM (active). The results for the GI50 with K562 and in the assay with OVCAR-4 were 1.52 µM (inactive) and 5.32 µM (inactive), respectively.
